Measurements taken from patent US20090306218A1, “Antimicrobial formulations” (priority 2006, published 2009).
Read-outs that look alike come from different tables or passages of the source.

Columns and labels:
[1] = tested on: Propionibacterium acnes NCTC 737; experiment: Disc diffusion assay (DDA); format: cell-based; settings: for zone of inhibition at 200 µg/disc: Cutibacterium acnes, NCTC737, read-out: DDA (zone of inhibition diameter); for DDA (zone of inhibition diameter): P. acnes NCTC 737
Description: (d) Disc Diffusion Assay (DDA)
This is an internationally recognised standard method for qualitatively assessing the antimicrobial activity of a compound.
A sterile paper disc was impregnated with a sample of the test compound in a suitable solvent and 30 minutes allowed for the solvents to evaporate (where possible). The disc was then placed on an agar plate onto which the test micro-organism had been inoculated. The plate was then incubated under the conditions described above, following which it was examined visually for signs of microbial growth. […] The diameter of this zone of “inhibition” was measured using a ProtoCOL™ automated zone sizer (Synbiosis, Cambridge, UK).
(§1) The TBHQ was dissolved in ethanol and the bismuth salts in DMSO.
(§2) All the (S)DDA experiments were conducted in triplicate.
(§3) DDA assays, as described above, were carried out using each of the test compounds individually. The quinone/bismuth salt combinations were then subjected to the SDDA assay described above.
(§4) The quinones and bismuth salts were all dissolved in DMSO.

[2] = tested on: Propionibacterium acnes NCTC 737; experiment: Minimum inhibitory concentration (MIC) assay, liquid medium; format: cell-based; settings: P. acnes NCTC 737
Description: (a) Minimum Inhibitory Concentration (MIC) Assay
This is a standard international method for quantitatively assessing the antimicrobial activity of a compound in a liquid medium. The method used a sterile 96-well microtitre plate, capable of holding about 200 μl of liquid per well. […] The culture medium was as described above.
After incubation, the microtitre plate was examined visually (with the aid of a light box) for cloudiness in each well, which would indicate microbial growth. The MIC value was recorded as the lowest concentration of test compound required to inhibit microbial growth, i.e., the lowest concentration for which the liquid in the well remained clear.
The assays were conducted in duplicate (minimum) and included both negative (culture medium with no micro-organisms) and positive (culture medium plus diluting solvent plus micro-organism) controls.
(§5) MIC, MBC and DDA assays, as described above, were carried out using the test compound t-butyl-p-hydroquinone (TBHQ) and a range of bismuth salts (all ex-Sigma Aldrich, UK).

[3] = tested on: Propionibacterium acnes NCTC 737; experiment: Minimum bactericidal concentration (MBC) assay; format: cell-based; settings: P. acnes NCTC 737
Description: (b) Minimum Bactericidal Concentration (MBC) Assay
as §5

[4] = tested on: Propionibacterium acnes NCTC 737; experiment: Synergy disc diffusion assay (SDDA); format: cell-based; settings: P. acnes NCTC 737; for SDDA with TBHQ (zone diameter): bismuth salt together with TBHQ, 200 μg of each per disc; for SDDA increase: combination with TBHQ vs the single compound with the larger zone; for SDDA area increase: combination with TBHQ
Description: (e) Synergy Disc Diffusion Assay (SDDA)
Each bismuth salt was then subjected, together with the TBHQ, to the SDDA assay described above.
as §1, §2, §3, §4

[5] = tested on: P. acnes PRP panel strains; format: cell-based, Propionibacterium acnes
[6] = tested on: P. granulosum panel strains; experiment: Agar dilution MIC assay, panel of propionibacteria; format: cell-based, Propionibacterium granulosum
[7] = 200 μg per disc (2-t-butyl-p-benzoquinone 100 μg per disc), in DMSO, Table 5
[8] = P. acnes PRP-002, resistance phenotype Tet/MLS
[9] = P. acnes PRP-003, resistance phenotype Tet
[10] = P. acnes PRP-004, resistance phenotype Tet
[11] = P. acnes PRP-007, resistance phenotype Clin
[12] = P. acnes PRP-008, resistance phenotype Clin
[13] = P. acnes PRP-010, resistance phenotype MLSK
[14] = P. acnes PRP-017, resistance phenotype MLS
[15] = P. acnes PRP-023, resistance phenotype MLSK
[16] = P. acnes PRP-026, resistance phenotype MLS
[17] = P. acnes PRP-039, resistance phenotype Tet/MLS
[18] = P. acnes PRP-046, resistance phenotype None
[19] = P. acnes PRP-053, resistance phenotype Tet/MLS
[20] = P. acnes PRP-059, resistance phenotype MLS
[21] = P. acnes PRP-068, resistance phenotype Ery
[22] = P. acnes PRP-101, resistance phenotype Tet/MLS
[23] = P. acnes PRP-102, resistance phenotype Tet/MLS
[24] = P. granulosum NCTC 11865, resistance phenotype None
[25] = P. granulosum PRP-005, resistance phenotype MLSK
[26] = P. granulosum PRP-006, resistance phenotype MLS
[27] = P. granulosum PRP-019, resistance phenotype MLSK
[28] = P. granulosum PRP-021, resistance phenotype MLS
[29] = P. granulosum PRP-043, resistance phenotype MLS
[30] = P. granulosum PRP-044, resistance phenotype MLS
[31] = P. granulosum PRP-055, resistance phenotype None

O=C1C=CC(=O)C(Cl)=C1 [2-chloro-p-benzoquinone]
zone of inhibition at 200 µg/disc [1]: 25.4 mm

CC(=O)[O-].CC(=O)[O-].CC(=O)[O-].[Bi+3] [Bismuth acetate]
MIC ([2]; Table 1): 0.98 mg/L
MBC ([3]; Table 1): 7.8 mg/L
MIC/MBC ratio ([3]; Table 1): 0.125
DDA (zone of inhibition diameter) ([1]; 200 μg per disc, Table 2): 28.17 mm
SDDA with TBHQ (zone diameter) ([4]; Table 2): 34.89 mm
SDDA increase ([4]; Table 2): 6.72 mm
SDDA area increase ([4]; Table 2): 53.4%

CC1=CC(=O)C=CC1=O [Methyl-p-benzoquinone]
zone of inhibition at 200 µg/disc [1]: 39.9 mm

CC(C)(C)C1=CC(=O)C=CC1=O [2-t-butyl-p-benzoquinone]
DDA (zone of inhibition diameter) [1, 7]: 52.61 mm

O=C([O-])CC(O)(CC(=O)[O-])C(=O)[O-].[Bi+3] [Bismuth citrate]
MIC ([2]; Table 1): 0.98 mg/L
MBC ([3]; Table 1): 7.8 mg/L
MIC/MBC ratio ([3]; Table 1): 0.125
DDA (zone of inhibition diameter) [1, 7]: 32.97 mm
DDA (zone of inhibition diameter) ([1]; 200 μg per disc, Table 2): 34.47 mm
SDDA with TBHQ (zone diameter) ([4]; Table 2): 43.41 mm
SDDA increase ([4]; Table 2): 8.94 mm
SDDA area increase ([4]; Table 2): 58.59%
MIC (agar dilution) [5, 8]: 7.8 mg/L
MIC (agar dilution) [5, 9]: 3.9 mg/L
MIC (agar dilution) [5, 10]: 7.8 mg/L
MIC (agar dilution) [5, 11]: 3.9 mg/L
MIC (agar dilution) [5, 12]: 3.9 mg/L
MIC (agar dilution) [5, 13]: 7.8 mg/L
MIC (agar dilution) [5, 14]: 3.9 mg/L
MIC (agar dilution) [5, 15]: 3.9 mg/L
MIC (agar dilution) [5, 16]: 3.9 mg/L
MIC (agar dilution) [5, 17]: 0.98 mg/L
MIC (agar dilution) [5, 18]: 3.9 mg/L
MIC (agar dilution) [5, 19]: 3.9 mg/L
MIC (agar dilution) [5, 20]: 7.8 mg/L
MIC (agar dilution) [5, 21]: 7.8 mg/L
MIC (agar dilution) [5, 22]: 7.8 mg/L
MIC (agar dilution) [5, 23]: 7.8 mg/L
MIC (agar dilution) [6, 24]: 7.8 mg/L
MIC (agar dilution) [6, 25]: 7.8 mg/L
MIC (agar dilution) [6, 26]: 7.8 mg/L
MIC (agar dilution) [6, 27]: 7.8 mg/L
MIC (agar dilution) [6, 28]: 7.8 mg/L
MIC (agar dilution) [6, 29]: 3.9 mg/L
MIC (agar dilution) [6, 30]: 7.8 mg/L
MIC (agar dilution) [6, 31]: 7.8 mg/L

O=[N+]([O-])[O-].O=[N+]([O-])[O-].O=[N+]([O-])[O-].O=[N+]([O-])[O-].[Bi+3].[Bi+3].[Bi+3].[Bi+3].[Bi+3].[O-2].[OH-].[OH-].[OH-].[OH-].[OH-].[OH-].[OH-].[OH-].[OH-] [Bismuth subnitrate]
MIC ([2]; separate experiment, Table 3): 3.9 mg/L
MBC ([3]; separate experiment, Table 3): 7.8 mg/L
MIC/MBC ratio ([3]; separate experiment, Table 3): 0.5
DDA (zone of inhibition diameter) [1, 7]: 24.91 mm
DDA (zone of inhibition diameter) ([1]; 200 μg per disc, separate experiment, Table 4): 24.91 mm
SDDA with TBHQ (zone diameter) ([4]; Table 4): 30.39 mm
SDDA increase ([4]; Table 4): 5.48 mm
SDDA area increase ([4]; Table 4): 48.84%
MIC (agar dilution) [5, 8]: 7.8 mg/L
MIC (agar dilution) [5, 9]: 7.8 mg/L
MIC (agar dilution) [5, 10]: 7.8 mg/L
MIC (agar dilution) [5, 11]: 7.8 mg/L
MIC (agar dilution) [5, 12]: 7.8 mg/L
MIC (agar dilution) [5, 13]: 7.8 mg/L
MIC (agar dilution) [5, 14]: 7.8 mg/L
MIC (agar dilution) [5, 15]: 7.8 mg/L
MIC (agar dilution) [5, 16]: 7.8 mg/L
MIC (agar dilution) [5, 17]: 7.8 mg/L
MIC (agar dilution) [5, 18]: 7.8 mg/L
MIC (agar dilution) [5, 19]: 7.8 mg/L
MIC (agar dilution) [5, 20]: 7.8 mg/L
MIC (agar dilution) [5, 21]: 7.8 mg/L
MIC (agar dilution) [5, 22]: 7.8 mg/L
MIC (agar dilution) [5, 23]: 7.8 mg/L
MIC (agar dilution) [6, 24]: 7.8 mg/L
MIC (agar dilution) [6, 25]: 7.8 mg/L
MIC (agar dilution) [6, 26]: 7.8 mg/L
MIC (agar dilution) [6, 27]: 7.8 mg/L
MIC (agar dilution) [6, 28]: 7.8 mg/L
MIC (agar dilution) [6, 29]: 7.8 mg/L
MIC (agar dilution) [6, 30]: 7.8 mg/L
MIC (agar dilution) [6, 31]: 7.8 mg/L

[Cl][Bi]([Cl])[Cl] [Bismuth chloride]
MIC ([2]; Table 1): 0.49 mg/L
MBC ([3]; Table 1): 3.9 mg/L
MIC/MBC ratio ([3]; Table 1): 0.125
DDA (zone of inhibition diameter) ([1]; 200 μg per disc, Table 2): 26.07 mm
SDDA with TBHQ (zone diameter) ([4]; Table 2): 31.64 mm
SDDA increase ([4]; Table 2): 5.57 mm
SDDA area increase ([4]; Table 2): 47.29%
